Data reported in PMC10065799, “High-throughput profiling of sequence recognition by tyrosine kinases and SH2 domains using bacterial peptide display” (eLife, 2023).

Key:
FGFR3 kinase domain = assay: pTyr-Var library bacterial peptide display kinase screen (enrichment scores); assay type: biochemical, human
Fer kinase domain = assay: as above; assay type: biochemical, mouse
EPHB2 kinase domain = assay: as above; assay type: biochemical, human
SHP2 C-SH2 domain = assay: pTyr-Var library SH2 domain screen with SH2-dynabeads (enrichment scores)
EPHB1 kinase domain = assay: pTyr-Var library bacterial peptide display kinase screen (enrichment scores); assay type: biochemical, human
AncSZ kinase domain = assay: as above; assay type: biochemical
Jak2 = assay: as above; assay type: biochemical, human
Fyn kinase domain = assay: as above; assay type: biochemical, human
c-Src kinase domain [1] = biological target: T1, c-Src kinase domain (Homo sapiens, UniProt P12931); assay: as above; assay type: biochemical
MERTK kinase domain = assay: as above; assay type: biochemical, human
Hck kinase domain = assay: as above; assay type: biochemical, human
c-Abl kinase domain = biological target: T2, c-Abl kinase domain (Mus musculus, UniProt P00520); assay: as above; assay type: biochemical
T2 sequence (P00520 242-493 limits assumed): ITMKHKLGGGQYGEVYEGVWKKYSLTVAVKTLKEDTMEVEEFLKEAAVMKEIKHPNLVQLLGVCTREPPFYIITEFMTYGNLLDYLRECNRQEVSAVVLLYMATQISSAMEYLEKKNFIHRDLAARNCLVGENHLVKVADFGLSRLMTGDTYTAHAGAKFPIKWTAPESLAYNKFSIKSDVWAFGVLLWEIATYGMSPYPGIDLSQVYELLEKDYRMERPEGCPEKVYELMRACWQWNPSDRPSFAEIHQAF

Grb2 SH2 domain = assay: pTyr-Var library SH2 domain screen with SH2-dynabeads (enrichment scores)
c-Src SH2 domain = c-Src SH2 domain (Homo sapiens, UniProt P12931); assay: as above; conditions: sheet c-Src
[2] = test system: 4G10 Platinum pan-phosphotyrosine antibody; assay: Phosphorylated pTyr-Var library selection with biotinylated pan-phosphotyrosine antibody; assay type: binding, mouse; conditions: enrichment score, sheet SH2-vs-peptide
Fes = assay: pTyr-Var library bacterial peptide display kinase screen (enrichment scores); assay type: biochemical; conditions: mean of log2 of enrichment over R1-R6
FGFR1 kinase domain = assay: as above; assay type: biochemical, human
c-Src kinase domain [3] = biological target: T1, c-Src kinase domain; assay: RP-HPLC assay to measure peptide phosphorylation kinetics; assay type: biochemical; conditions: purified peptide substrate
[4] = biological target: human c-Src kinase domain (residues 260-528) (human) (UniProt P12931)
[5] = mean of log2 enrichment of reference peptide, n = 5
[6] = pTyr-Var library, reference peptide enrichment, mean of n = 5
[7] = mean of log2 of enrichment over R1-R4
[8] = pTyr-Var library, enrichment score, replicate 1
[9] = pTyr-Var library, enrichment score, replicate 3
[10] = pTyr-Var library, enrichment score, replicate 4
[11] = mean of log2 enrichment of reference peptide, n = 4
[12] = pTyr-Var library, reference peptide enrichment, mean of n = 4
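Throughout, for screen: log2 fold change in enrichment of variant over reference.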

DRVALYIAREG [AACS_Y117]
mean of log2(reference) (FGFR3 kinase domain; [5]): -0.5381
ref. mean (FGFR3 kinase domain; [6]): 0.7165
Fer mean of log2(enrichment) (Fer kinase domain; [7]): -1.082
Fer enrich. R1 (Fer kinase domain; [8]): 0.5665
Fer enrich. R3 (Fer kinase domain; [9]): 0.4786
Fer enrich. R4 (Fer kinase domain; [10]): 0.5652
mean of log2(reference) (EPHB2 kinase domain; [11]): -0.9971
ref. mean (EPHB2 kinase domain; [12]): 0.5335
mean of log2(reference) (SHP2 C-SH2 domain; SHP2-C SH2, mean of log2 enrichment of reference, R1-R3): -0.1513
ref. mean (SHP2 C-SH2 domain; reference peptide enrichment score, SHP2-C SH2, mean of R1-R3): 0.928
mean of log2(reference) (EPHB1 kinase domain; [11]): -0.6213
ref. mean (EPHB1 kinase domain; [12]): 0.6707
AncSZ mean of log2(enrichment) (AncSZ kinase domain; mean of log2 of enrichment over R1-R5): -0.07806
AncSZ enrich. R1 (AncSZ kinase domain; [8]): 1.096
AncSZ enrich. R3 (AncSZ kinase domain; [9]): 1.043
AncSZ enrich. R4 (AncSZ kinase domain; [10]): 0.9321
AncSZ enrich. R5 (AncSZ kinase domain; pTyr-Var library, enrichment score, replicate 5): 0.7233
Jak2 mean of log2(enrichment) (Jak2; mean of log2 of enrichment over R1-R3): 0.02155
Jak2 enrich. R1 (Jak2; [8]): 0.9714
Jak2 enrich. R3 (Jak2; [9]): 1.09
Fyn mean of log2(enrichment) (Fyn kinase domain; [7]): -1.315
Fyn enrich. R1 (Fyn kinase domain; [8]): 0.792
Fyn enrich. R3 (Fyn kinase domain; [9]): 0.3214
Fyn enrich. R4 (Fyn kinase domain; [10]): 0.1749
c-Src mean of log2(enrichment) (c-Src kinase domain [1]; [7]): -1.224
c-Src enrich. R1 (c-Src kinase domain [1]; [8]): 0.458
c-Src enrich. R3 (c-Src kinase domain [1]; [9]): 0.3437
c-Src enrich. R4 (c-Src kinase domain [1]; [10]): 0.4348
mean of log2(reference) (MERTK kinase domain; [11]): -1.387
ref. mean (MERTK kinase domain; [12]): 0.3952
Hck mean of log2(enrichment) (Hck kinase domain; mean of log2(variant) / mean of log2(reference), R1-R4): 0.5689
Hck enrich. R1 (Hck kinase domain; [8]): 0.9245
Hck enrich. R3 (Hck kinase domain; [9]): 0.4813
Hck enrich. R4 (Hck kinase domain; [10]): 0.2133
c-Abl mean of log2(enrichment) (c-Abl kinase domain; [7]): -0.4566
c-Abl enrich. R1 (c-Abl kinase domain; [8]): 0.7622
c-Abl enrich. R3 (c-Abl kinase domain; [9]): 0.701
c-Abl enrich. R4 (c-Abl kinase domain; [10]): 0.6553
mean of log2(reference) (Grb2 SH2 domain; Grb2 SH2, mean of log2 enrichment of reference, R1-R3): -0.1768
ref. mean (Grb2 SH2 domain; reference peptide enrichment score, Grb2 SH2, mean of R1-R3): 0.8958
mean of log2(reference) (c-Src SH2 domain; mean of log2 enrichment of reference peptide, R1-R3): -1.13
ref. mean (c-Src SH2 domain; reference peptide, mean of R1-R3): 0.4875
4G10 (mean) [2]: 0.8696
Fes mean of log2(enrichment) (Fes): 0.1816
mean of log2(reference) (FGFR1 kinase domain; [5]): -0.9619
ref. mean (FGFR1 kinase domain; [6]): 0.5188

Ac-SGDINYGQFAQ-NH2 [PLCG1_Y210_T209N, pTyr-Var library variant phosphosite peptide]
Phosphorylation Rate (c-Src kinase domain [3]): 0.307 s⁻¹
Screen (c-Src kinase domain [1]; sheet "Src", variant peptide versus its reference peptide in the pTyr-Var library screen): -3.177

Ac-GPDEPIYEWWWIKKKG-NH2 [Fer Consensus peptide Ac-…-NH2]
KM (μM) of phosphorylation, Michaelis-Menten analysis, ADP-Quest assay [4]: 8 µM
